What was measured:
Assay type in all cases: biochemical
Conditions in all cases: Table 7
[1] = system: Rabbit Skeletal myofibrils (rabbit psoas muscle); test: Myofibril ATPase assay (PK/LDH NADH-coupled), skeletal myofibrils
In short: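 Rabbit psoas myofibrils in pCa (PIPES/CaCl2/EGTA, pH 7.0) buffer; ADP coupled via PK/LDH to NADH loss, read at 340 nm every 1.5–2 min for 75 min. Slopes normalized to vehicle (100%) and fit to 4-parameter logistic for EC25, plus EC50 for inhibitors.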

[2] = target: T1, Porcine Ventricle myofibrils (left ventricle of Yucatan minipigs) (Sus scrofa, UniProt P79293); test: Myofibril ATPase assay (PK/LDH NADH-coupled), ventricle myofibrils
T1 construct: Myofibrils from porcine cardiac muscle was isolated from the left ventricle of Yucatan minipigs; tissue Exemplar Genetics; host or cells: left ventricle of Yucatan minipigs
T1 sequence (P79293 whole entry): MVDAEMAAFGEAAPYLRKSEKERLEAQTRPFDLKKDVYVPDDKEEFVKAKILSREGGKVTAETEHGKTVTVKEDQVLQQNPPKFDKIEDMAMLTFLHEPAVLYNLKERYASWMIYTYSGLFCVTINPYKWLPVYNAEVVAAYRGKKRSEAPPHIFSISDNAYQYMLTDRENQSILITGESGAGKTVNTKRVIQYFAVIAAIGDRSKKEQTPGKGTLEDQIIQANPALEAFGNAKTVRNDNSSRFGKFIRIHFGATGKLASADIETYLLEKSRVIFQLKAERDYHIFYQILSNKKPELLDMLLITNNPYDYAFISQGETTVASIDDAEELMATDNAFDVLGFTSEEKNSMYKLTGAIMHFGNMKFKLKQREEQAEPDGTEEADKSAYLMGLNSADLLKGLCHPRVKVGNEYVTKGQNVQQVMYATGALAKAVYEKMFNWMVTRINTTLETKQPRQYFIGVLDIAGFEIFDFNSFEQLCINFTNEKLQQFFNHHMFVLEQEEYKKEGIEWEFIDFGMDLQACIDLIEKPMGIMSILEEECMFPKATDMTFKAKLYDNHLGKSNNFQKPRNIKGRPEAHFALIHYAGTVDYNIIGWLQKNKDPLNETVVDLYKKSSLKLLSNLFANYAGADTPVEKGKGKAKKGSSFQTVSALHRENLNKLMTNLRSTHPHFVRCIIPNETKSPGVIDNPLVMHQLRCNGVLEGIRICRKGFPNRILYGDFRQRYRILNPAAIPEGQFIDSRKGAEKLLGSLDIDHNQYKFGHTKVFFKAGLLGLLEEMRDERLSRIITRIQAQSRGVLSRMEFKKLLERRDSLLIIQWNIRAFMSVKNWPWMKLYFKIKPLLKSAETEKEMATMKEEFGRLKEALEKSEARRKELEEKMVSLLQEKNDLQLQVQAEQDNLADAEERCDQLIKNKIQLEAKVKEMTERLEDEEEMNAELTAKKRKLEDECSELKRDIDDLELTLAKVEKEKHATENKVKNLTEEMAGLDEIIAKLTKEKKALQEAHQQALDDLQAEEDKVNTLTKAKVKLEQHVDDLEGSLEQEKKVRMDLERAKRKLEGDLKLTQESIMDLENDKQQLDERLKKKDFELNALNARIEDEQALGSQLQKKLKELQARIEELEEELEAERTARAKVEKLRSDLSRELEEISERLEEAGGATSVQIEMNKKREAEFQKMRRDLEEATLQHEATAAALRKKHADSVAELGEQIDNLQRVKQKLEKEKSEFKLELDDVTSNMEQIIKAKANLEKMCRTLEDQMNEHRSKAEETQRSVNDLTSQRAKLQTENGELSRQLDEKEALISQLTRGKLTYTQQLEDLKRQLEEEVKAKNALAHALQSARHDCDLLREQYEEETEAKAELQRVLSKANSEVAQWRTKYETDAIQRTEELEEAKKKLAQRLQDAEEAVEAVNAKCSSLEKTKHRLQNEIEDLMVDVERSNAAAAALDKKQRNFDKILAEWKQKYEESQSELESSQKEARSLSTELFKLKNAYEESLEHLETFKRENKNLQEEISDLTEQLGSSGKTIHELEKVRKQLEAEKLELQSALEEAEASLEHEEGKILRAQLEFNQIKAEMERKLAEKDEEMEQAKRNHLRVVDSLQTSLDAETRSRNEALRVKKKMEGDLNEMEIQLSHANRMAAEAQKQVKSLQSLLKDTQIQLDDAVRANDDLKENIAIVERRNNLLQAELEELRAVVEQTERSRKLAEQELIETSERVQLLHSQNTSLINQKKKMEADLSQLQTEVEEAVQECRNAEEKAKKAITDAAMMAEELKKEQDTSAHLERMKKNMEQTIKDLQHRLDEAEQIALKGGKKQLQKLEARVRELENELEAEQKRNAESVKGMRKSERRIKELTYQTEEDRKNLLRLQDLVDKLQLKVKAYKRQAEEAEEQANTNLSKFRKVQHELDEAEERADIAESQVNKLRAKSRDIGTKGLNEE
In short: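 Yucatan minipig left-ventricle myofibrils; ATPase measured by PK/LDH-coupled NADH loss at 340 nm, read every 1.5-2 min for 75 min. Slopes normalized to vehicle (100%) and fit to 4-parameter logistic model; EC25 and, for inhibitors, EC50 calculated.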

Porcine Atria myofibrils = test: Myofibril ATPase assay (PK/LDH NADH-coupled), atria myofibrils
In short: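 Porcine atrial myofibril ATPase followed via PK/LDH-coupled NADH depletion, absorbance at 340 nm read every 1.5-2 min over 75 min. Slopes (mAU/min) normalized to vehicle as 100% and fit to a 4-parameter logistic; EC25% derived, plus EC50% for inhibitors.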

Structure (SMILES)	Rabbit Psoas IC25 [1]	Porcine Ventricle IC25 [2]	Porcine Atria IC25 (Porcine Atria myofibrils)
N#Cc1ccc([C@H](CO)NC(=O)CN2Cc3c(ccnc3C#N)NC2=O)c(F)c1 [Compound N32]	2.872 µM	100 µM	100.00 µM
O=C(CN1C(=O)Nc2cccnc2C12CC2)N[C@H]1COc2cc(F)cc(F)c21 [Compound N34]	1.366 µM	100 µM	8.44 µM
C[C@H](NC(=O)CN1C(=O)Nc2cccnc2C12COC2)c1ccc(F)cc1F [Compound N35]	0.9847 µM	100 µM	6.39 µM
N#Cc1ccc([C@@H](CO)NC(=O)CN2C(=O)Nc3cccnc3C23CC3)c(F)c1 [Compound N36]	1.604 µM	25.16 µM	8.01 µM
N#Cc1ccc([C@H](CO)NC(=O)CN2C(=O)Nc3cccnc3C23CC3)c(F)c1 [Compound N37]	0.0599 µM	4.582 µM	0.20 µM
C[C@@H](NC(=O)CN1Cc2c(C#N)cncc2NC1=O)c1ncc(F)cc1F [Compound N38]	5.343 µM	100 µM	60.44 µM
C[C@H](NC(=O)CN1Cc2c(C#N)cncc2NC1=O)c1ncc(F)cc1F [Compound N39]	1.979 µM	51.8 µM	9.59 µM
N#Cc1nccc2c1CN(CC(=O)N[C@H](CO)c1ccc(F)cc1F)C(=O)N2 [Compound N40]	4.177 µM	100 µM	87.45 µM
N#Cc1nccc2c1CN(CC(=O)N[C@@H](CO)c1ccc(F)cc1F)C(=O)N2 [Compound N41]	0.0762 µM	2.357 µM	1.12 µM
C[C@H](NC(=O)CN1C(=O)Nc2ccc(O)nc2C12CC2)c1ccc(F)cc1F [Compound N42]	100 µM	100 µM	100.00 µM
O=C(CN1C(=O)Nc2cccnc2C12CC2)N[C@H](CO)c1ccc(F)cc1F [Compound N43]	100 µM	100 µM	32.69 µM
O=C(CN1C(=O)Nc2cccnc2C12CC2)N[C@@H](CO)c1ccc(F)cc1F [Compound N44]	0.5658 µM	18.96 µM	1.18 µM
C[C@H](NC(=O)[C@H](C)N1Cc2nc(C#N)ccc2NC1=O)c1ccc(F)cc1F [Compound N45]	100 µM	100 µM	14.99 µM
C[C@H](NC(=O)[C@@H](C)N1Cc2nc(C#N)ccc2NC1=O)c1ccc(F)cc1F [Compound N46]	100 µM	100 µM	100.00 µM
C[C@@H](NC(=O)CN1C(=O)Nc2cccnc2C12CC2)c1ncc(F)cc1F [Compound N47]	0.2942 µM	6.077 µM	0.67 µM
C[C@H](NC(=O)CN1C(=O)Nc2cccnc2C12CC2)c1ncc(F)cc1F [Compound N48]	100 µM	100 µM	100.00 µM
O=C(CN1Cc2c(ccnc2C(F)(F)F)NC1=O)N[C@H](CO)c1ncc(F)cc1F [Compound N49]	100 µM	100 µM	100.00 µM
O=C(CN1Cc2c(ccnc2C(F)(F)F)NC1=O)N[C@@H](CO)c1ncc(F)cc1F [Compound N50]	2.278 µM	100 µM	9.91 µM

Structure (SMILES)	Rabbit Psoas IC25 [1]	Porcine Ventricle IC25 [2]	Porcine Atria IC25 (Porcine Atria myofibrils)
CC(NC(=O)CN1Cc2c(ccnc2C2CC2(F)F)NC1=O)c1ncc(F)cc1F (stereo not drawn) [Compound N51]	100 µM	100 µM	100.00 µM
Cc1c(F)cnc2c1CN(CC(=O)N[C@H](C)c1ncc(F)cc1F)C(=O)N2 [Compound N52]	15.28 µM	100 µM	98.42 µM
Cc1c(F)cnc2c1CN(CC(=O)N[C@@H](C)c1ncc(F)cc1F)C(=O)N2 [Compound N53]	100 µM	100 µM	100.00 µM
C[C@H](NC(=O)CN1Cc2c(Cl)cncc2NC1=O)c1ccc(F)cc1F [Compound N56, 2-{5-Chloro-2-oxo-1H,4H-pyrido[3,4-d]pyrimidin-3-yl}-N-[(1S)-1-(2,4-difluorophenyl)ethyl]acetamide]	86.07 µM	100 µM	100.00 µM
Cc1c(F)cnc2c1CN(CC(=O)N[C@@H](C)c1ccc(F)cc1F)C(=O)N2 [Compound N57, N-[(1S)-1-(2,4-Difluorophenyl)ethyl]-2-{6-fluoro-5-methyl-2-oxo-1H,4H-pyrido[2,3-d]pyrimidin-3-yl}acetamide]	6.748 µM	100 µM	12.15 µM
C[C@@H](NC(=O)CN1Cc2nc(C#N)ccc2NC1=O)c1ncc(F)cc1F [Compound N58]	100 µM	100 µM	100.00 µM
C[C@H](NC(=O)CN1Cc2nc(C#N)ccc2NC1=O)c1ncc(F)cc1F [Compound N59]	100 µM	100 µM	6.80 µM
C[C@H](NC(=O)CN1Cc2nc(C#N)ccc2NC1=O)c1ccc(F)cc1F [Compound N60, (S)-2-(6-Cyano-2-oxo-1,4-dihydropyrido[3,2-d]pyrimidin-3(2H)-yl)-N-(1-(2,4-difluorophenyl)ethyl)acetamide]	1.385 µM	81.4 µM	1.15 µM
C[C@@H](NC(=O)CN1Cc2c(ccnc2C#N)NC1=O)c1ncc(F)cc1F [Compound N61]	100 µM	100 µM	100.00 µM
C[C@H](NC(=O)CN1Cc2c(ccnc2C#N)NC1=O)c1ncc(F)cc1F [Compound N62]	0.1508 µM	5.161 µM	0.97 µM
C[C@@H](NC(=O)CN1Cc2c(F)cncc2NC1=O)c1ncc(F)cc1F [Compound N63]	100 µM	100 µM	100.00 µM
C[C@H](NC(=O)CN1Cc2c(F)cncc2NC1=O)c1ncc(F)cc1F [Compound N64]	16.71 µM	100 µM	25.37 µM
CC(NC(=O)CN1Cc2c(ccnc2C(N)=O)NC1=O)c1ncc(F)cc1F (stereo not drawn) [Compound N65]	100 µM	100 µM	100.00 µM
C[C@H](NC(=O)CN1Cc2c(ccnc2OC2COC2)NC1=O)c1ccc(F)cc1F [Compound N66]	0.3112 µM	100 µM	29.35 µM
COc1ccc2c(n1)C1(CC1)N(CC(=O)N[C@H](C)c1ncc(F)cc1F)C(=O)N2 [Compound N67]	100 µM	100 µM	100.00 µM
COc1ccc2c(n1)C1(CC1)N(CC(=O)N[C@@H](C)c1ncc(F)cc1F)C(=O)N2 [Compound N68]	0.0442 µM	1.833 µM	0.13 µM
C[C@@H](NC(=O)CN1Cc2cc(F)cnc2NC1=O)c1ncc(F)cc1F [Compound N69]	100 µM	100 µM	100.00 µM
C[C@H](NC(=O)CN1Cc2cc(F)cnc2NC1=O)c1ncc(F)cc1F [Compound N70]	100 µM	100 µM	100.00 µM

Source: US12509431B2, “1,4-dihydroquinazolinone compounds and uses thereof” (Edgewise Therapeutics, Inc., priority 2022, dated 2025)
